Results reported in patent US12409172B2, “Dosage regimen” (UNION therapeutics A/S, priority 2023, dated 2025).
Like-named read-outs stand apart in the source and are kept apart here.

Key:
[1] = test system: human peripheral blood mononuclear cells PBMC; details: in vitro; cited from earlier work
[2] = test system: PDE4B and PDE4D subtype splice variants; details: in vitro; cited from earlier work
[3] = test system: TNF-α secretion from human whole blood; details: in vitro; cited from earlier work
[4] = test system: adults with moderate to severe atopic dermatitis; assay: Phase 2b dose-ranging study in atopic dermatitis (Example 8): efficacy (EASI, IGA-AD, PGIC); type: in vivo, human; details: for patients achieving IGA0/1 responses at week 16: MI
Method: A 16-week, phase 2b, double-blinded, placebo-controlled, dose-finding study assessing efficacy and safety of orismilast modified-release (MR) tablets in adults with moderate-to-severe atopic dermatitis was carried out (NCT05469464). Patients were randomized (1:1:1:1) to orismilast 20, 30, 40 mg or placebo, twice daily. Randomized and dosed patients were included in the Intent-to-Treat Population (used for efficacy and safety). Missing data was handled using Multiple Imputation (MI) for the analysis of primary and secondary efficacy endpoints.
The exploratory objectives are to: • Evaluate pharmacokinetic (PK) and pharmacodynamic parameters relevant to AD • Evaluate the effect of orismilast on the pulmonary status and course of the disease in patients with asthma Primary Endpoint • Percentage change in Eczema Area and Severity Index (EASI) score from Baseline at Week 16. […]

[5] = Clinical trial LP0058-1442 in healthy volunteers: PK of modified-release tablet vs immediate-release capsule; type: in vivo, human; details: for AUC(0-t): human, plasma, oral, read-out: AUClast, NCA GM (CV %)
Method: The modified-release formulation was studied in a clinical trial (LP0058-1442) and administered in a total of 36 healthy volunteers: 18 in part 1, 9 in part 2, and 9 in part 3. Twenty-seven (27) healthy volunteers received a single administration of 30 mg orismilast, and 9 subjects received multiple administrations over a period of 17 days with an up-titration up to a maximum of 60 mg BID. Part 1 of this study was to evaluate the key PK parameters of the new modified-release formulation compared to the reference capsule formulation with immediate release. Orismilast was rapidly absorbed from both formulations with median tmax values of 3.00 hours post-dose for the immediate-release capsule and 2.52 hours post-dose for the modified-release tablet. The individual tmax ranges were approximately 1 to 6 hours post-dose for the immediate-release capsule and 1 to 4 hours post-dose for the modified-release tablet. […] It can therefore be reasonably assumed that the safety profile resulting from systemic effects can be extrapolated from studies having investigated the immediate-release formulation and in particular, study LP0058-1072, a Phase 2a study including 36 patients with moderate to severe psoriasis vulgaris.
Following administration of modified release tablet as a single oral dose and after multiple doses up to 60 mg, orismilast reached a Cmax around 3 h under fasting state.

O=C(Cc1c(Cl)c[n+]([O-])cc1Cl)c1ccc(OC(F)F)c2c1OC1(CCS(=O)(=O)CC1)O2 [orismilast, 2-(3,5-dichloro-1-oxidopyridin-1-ium-4-yl)-1-[7-(difluoromethoxy)-1′,1′-dioxospiro[1,3-benzodioxole-2,4′-thiane]-4-yl]ethanone]
secretion of Th1 (TNFα and IFNγ), Th17 (IL-22 and IL-23) and Th2 (IL-4, IL-5, and IL-13) related cytokines in PBMC [1]: inhibited
inhibition of PDE4B and PDE4D subtype splice variants [2]: potent inhibitor
production of tumour necrosis factor α (TNFα) in human whole blood and PBMC [3]: inhibited
patients achieving IGA0/1 responses at week 16 ([4]; 20 mg BID (n=58)): 26.3%
patients achieving IGA0/1 responses at week 16 ([4]; 30 mg BID (n=61)): 24.3%
mean percentage change in EASI at week 16 ([4]; 30 mg BID, p>0,05): −52.2%
patients achieving IGA0/1 responses at week 16 ([4]; 40 mg BID (n=59)): 30.9%
Patient Global Impression of Change of "much improved" or "very much improved" compared to placebo at week 16 ([4]; active arms (20, 30, 40 mg BID)): improved significantly
AUC(0-t) ([5]; 10 mg, 1442 - Part 3 (D1 = 10 mg), N 9): 112 ng·h/mL
AUC(0-t) ([5]; 30 mg, 1442 - Part 1 (MR, 30 mg), N 18): 482 ng·h/mL
AUC(0-t) ([5]; 30 mg, 1442 - Part 2 (Fast, 30 mg), N 9): 480 ng·h/mL
AUC(0-t) ([5]; 60 mg, 1442 - Part 3 (D17 = 60 mg), N 9): 763 ng·h/mL
systemic exposure with high-fat meals ([5]; modified release tablet): significant increase
